In ChEMBL document CHEMBL3882724 (2013):

How the values were obtained:
[1] = target: T1, Steroid 17-alpha-hydroxylase/17,20 lyase (Homo sapiens, UniProt P05093); assay: Inhibition of CYP17 in human testicular microsomes using 17alpha-hydroxypregnenolone as substrate assessed as decrease in DHEA levels after 90 mins by ELISA; parameters: species or system Testis
T1 sequence (P05093 whole entry): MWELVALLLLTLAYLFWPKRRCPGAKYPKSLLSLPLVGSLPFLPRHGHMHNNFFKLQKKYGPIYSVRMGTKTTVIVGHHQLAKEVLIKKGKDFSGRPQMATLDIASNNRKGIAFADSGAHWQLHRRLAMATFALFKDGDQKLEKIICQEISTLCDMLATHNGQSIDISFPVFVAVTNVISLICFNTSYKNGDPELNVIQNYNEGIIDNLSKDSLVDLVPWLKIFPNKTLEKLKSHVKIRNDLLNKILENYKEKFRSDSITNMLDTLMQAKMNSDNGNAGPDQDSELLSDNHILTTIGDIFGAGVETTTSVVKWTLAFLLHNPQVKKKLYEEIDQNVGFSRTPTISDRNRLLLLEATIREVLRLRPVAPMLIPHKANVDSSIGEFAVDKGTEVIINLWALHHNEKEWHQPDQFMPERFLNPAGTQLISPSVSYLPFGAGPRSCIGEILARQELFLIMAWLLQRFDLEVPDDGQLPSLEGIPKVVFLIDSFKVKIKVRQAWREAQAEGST

[2] = target: T2, CYP21 (steroid 21-hydroxylase) (Homo sapiens, UniProt P08686); assay: Inhibition of human CYP21 transfected in HEK293 cells assessed as decrease in conversion of progesterone to 11-deoxycorticosterone preincubated for 5 hrs followed by progesterone addition measured after 20 hrs by ELISA; assay type: cell-based; parameters: concentration or dose not given beside the values; conditions: HEK293 cells transfected with human CYP21, probe progesterone
T2 sequence (P08686 whole entry): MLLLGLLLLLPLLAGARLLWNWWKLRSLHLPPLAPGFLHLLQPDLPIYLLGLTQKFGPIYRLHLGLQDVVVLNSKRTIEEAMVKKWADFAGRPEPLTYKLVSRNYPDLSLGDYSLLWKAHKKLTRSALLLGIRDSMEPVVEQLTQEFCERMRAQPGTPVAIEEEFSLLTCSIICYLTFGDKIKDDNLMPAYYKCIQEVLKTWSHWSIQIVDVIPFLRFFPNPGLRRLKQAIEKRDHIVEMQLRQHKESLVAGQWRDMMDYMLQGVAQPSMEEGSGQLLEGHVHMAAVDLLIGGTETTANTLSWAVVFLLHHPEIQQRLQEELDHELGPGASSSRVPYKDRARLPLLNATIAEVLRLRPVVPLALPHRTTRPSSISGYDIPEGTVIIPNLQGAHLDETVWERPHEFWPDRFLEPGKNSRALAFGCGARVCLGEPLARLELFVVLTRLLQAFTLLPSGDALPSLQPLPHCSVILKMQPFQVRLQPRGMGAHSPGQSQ

[3] = Half life in human liver microsomes at 1 uM by LC-MS/MS analysis

Work on `CC1C[C@H]2[C@@H]3CC=C(c4cccnc4)[C@@]3(C)CC[C@@H]2[C@@]2(C)CC[C@H](O)CC12O` (stereo partly drawn) yielded an IC50 [1] of no more than 0.011 µM and an inhibition at 20 h [2] of no less than 50%.

`C[C@]12CCC(=O)CC1C(=O)C[C@@H]1[C@@H]2CC[C@]2(C)C(c3cncc(F)c3)=CC[C@@H]12` (stereo partly drawn) showed an IC50 [1] of no more than 0.011 µM and an inhibition at 20 h [2] of no less than 50%.

With `CC(=O)N[C@@H]1CC[C@@]2(C)C(CC[C@H]3C4=CC=C(c5cccnc5)[C@@]4(C)CC[C@@H]32)C1` (stereo partly drawn) the half-life at 1 µM [3] was 1 to 50 min and the inhibition at 20 h [2] was no less than 50%.

With `C[C@]12CC[C@H]3[C@@H](CC(F)C4(O)CC(=O)CC[C@]34C)[C@@H]1CC=C2c1cncc(F)c1` (stereo partly drawn) the IC50 [1] was no more than 0.011 µM and the inhibition at 20 h [2] was no less than 50%.

In the case of `C[C@]12CCC(=O)C(O)=C1C=C[C@@H]1[C@@H]2CC[C@]2(C)C(c3cccnc3)=CC[C@@H]12`, the half-life at 1 µM [3] is reported as 1 to 50 min and the inhibition at 20 h [2] is reported as no less than 50%.

Work on `C[C@]12CC[C@H]3[C@@H](CC(F)C4(O)CC(=O)CC[C@]34C)[C@@H]1CC=C2c1cccnc1` (stereo partly drawn) yielded an IC50 [1] of no more than 0.011 µM and an inhibition at 20 h [2] of no less than 50%.

Molecule `CC[C@]1(O)CC[C@@]2(C)C(CC[C@@H]3[C@@H]2CC[C@]2(C)C(c4cccnc4)=CC[C@@H]32)C1` (stereo partly drawn) has a half-life at 1 µM [3] of 1 to 50 min and an inhibition at 20 h [2] of 10 to 50%.

For `C[C@]12CC[C@H](O)CC1=CC[C@@H]1[C@@H]2CC[C@]2(C)C(c3ccc(F)nc3)=CC[C@@H]12`, the half-life at 1 µM [3] was 1 to 50 min and the inhibition at 20 h [2] was 10 to 50%.

`C[C@]12CCC(=O)C=C1C(=O)C[C@@H]1[C@@H]2CC[C@]2(C)C(c3cncc(F)c3)=CC[C@@H]12` gave an IC50 [1] of no more than 0.011 µM and an inhibition at 20 h [2] of no less than 50%.

For `C[C@]12CC[C@@H](NC(=O)C3CCC3)CC1=CC[C@@H]1[C@@H]2CC[C@]2(C)C(c3cccnc3)=CC[C@@H]12`, the IC50 [1] was no more than 0.011 µM and the inhibition at 20 h [2] was no less than 50%.

`C[C@]12CC[C@H]3[C@@H](CCC4=CC(=O)NCC[C@@]43C)C1=CC=C2c1cncc(C(F)F)c1` gave an IC50 [1] of no more than 0.011 µM and an inhibition at 20 h [2] of no less than 50%.

Molecule `C[C@@]1(O)CC[C@@]2(C)C(=CC[C@@H]3[C@@H]2CC[C@]2(C)C(c4cncc(F)c4)=CC[C@@H]32)C1` has a half-life at 1 µM [3] of no less than 50 min and an inhibition at 20 h [2] of no less than 50%.

`Cc1cncc(C2=CC[C@H]3[C@@H]4CC=C5C[C@H](NC(=O)C6CC6)CC[C@]5(C)[C@H]4CC[C@]23C)c1` gave an IC50 [1] of no more than 0.011 µM and an inhibition at 20 h [2] of no less than 50%.

In the case of `C[C@]12CC[C@H]3[C@@H](CCC4CC(F)(F)CC[C@@]43C)C1=CC=C2c1cccnc1` (stereo partly drawn), the IC50 [1] is reported as no more than 0.011 µM.

`C[C@]12CCC(F)(F)CC1CC[C@@H]1[C@@H]2CC[C@]2(C)C(c3cccnc3)=CC[C@@H]12` (stereo partly drawn) gave an IC50 [1] of no more than 0.011 µM.

In the case of `C[C@]12CC[C@H]3[C@@H](CCC4=CC(=O)CC[C@@]43C)C1=CC=C2c1cncc(N)c1`, the IC50 [1] is reported as no more than 0.011 µM.

Work on `CC(=O)N[C@@H]1CC[C@@]2(C)C(=CC[C@@H]3[C@@H]2CC[C@]2(C)C(c4cncc(C(F)(F)F)c4)=CC[C@@H]32)C1` yielded a half-life at 1 µM [3] of 1 to 50 min and an inhibition at 20 h [2] of 10 to 50%.

Work on `CC(=O)O[C@H]1CC[C@@]2(C)C(=CC[C@H]3C4=CC=C(n5ccnc5)[C@@]4(C)CC[C@@H]32)C1` yielded an IC50 [1] of no more than 0.011 µM.

`CC1=C2CC[C@@H]3[C@H](CC[C@]4(C)C(c5cccnc5)=CC[C@@H]34)[C@@]2(C)CCC1O` (stereo partly drawn) gave an IC50 [1] of no more than 0.011 µM and an inhibition at 20 h [2] of 10 to 50%.

Molecule `CC1=C2CC[C@H]3C4=CC=C(c5cccnc5)[C@@]4(C)CC[C@@H]3[C@@]2(C)CCC1O` (stereo partly drawn) has an IC50 [1] of no more than 0.011 µM.

Molecule `CCNC(=O)N[C@@H]1CC[C@@]2(C)C(=CC[C@@H]3[C@@H]2CC[C@]2(C)C(c4cccnc4)=CC[C@@H]32)C1` has a half-life at 1 µM [3] of 1 to 50 min and an inhibition at 20 h [2] of no less than 50%.

Work on `COc1cncc(C2=CC[C@H]3[C@@H]4CCC5C[C@@H](NC(C)=O)CC[C@]5(C)[C@H]4CC[C@]23C)c1` (stereo partly drawn) yielded a half-life at 1 µM [3] of 1 to 50 min and an inhibition at 20 h [2] of no less than 50%.

Work on `Cc1cncc(C2=CC=C3[C@@H]4CCC5CC(=O)NCC[C@]5(C)[C@H]4CC[C@]23C)c1` (stereo partly drawn) yielded an IC50 [1] of no more than 0.011 µM and an inhibition at 20 h [2] of no less than 50%.

Molecule `CC1(C)C2=CC[C@H]3C4=CC=C(c5cccnc5)[C@@]4(C)CC[C@@H]3[C@@]2(C)CCC1O` (stereo partly drawn) has a half-life at 1 µM [3] of 1 to 50 min and an inhibition at 20 h [2] of 10 to 50%.
